The subject of test [1] is catfish putative taste receptor for L-arginine. In words: Single channel recording of purified receptor reconstituted in planar lipid bilayers (FIG. 9). The class given is biochemical. As to conditions: transmembrane potential −100 mV. The source says:
Proteoliposomes containing purified receptor protein from catfish taste epithelium are fused to planar lipid bilayers. Control records (trace shown in part A) were obtained after addition of proteolipisomes to the membrane bathing solution before addition of L-Arg. […] Transmembrane potential was −100 mV. Traces shown in all panels are continuous records of that specific condition.
This example, in part, describes the extraction, purification, and membrane-reconstitution of a taste receptor for L-arginine (L-arg) from catfish. The methods, which are published and described in Grosvenor, W et al. (2004) BMC Neuroscience 5:25, can be readily adapted for reconstitution of ENaC, ENaC subunits, and salty taste receptors in lipid membranes as described below. The catfish has served as a model for taste receptor studies because the receptors are very sensitive to certain amino acids. One such amino acid is L-arg. Like the ENaC, the taste receptor for L-arg in catfish is an ion channel. Parallel approaches are utilized in solubilizing the L-arg and ENaC-type receptors. The receptors differ primarily by origin—the L-arg receptor is purified from catfish taste tissue and the ENaC subunits are synthesized by a heterologous cell culture expression system. […]

Test [2] deals with L-ArgR (native taste receptor for L-arginine). In words: Taste nerve recordings from the animal, L-ArgR in its native state. The class given is in vivo, catfish. The source says: The properties of the L-ArgR as measured in the bilayer are very similar to those observed through taste nerve recordings from the animal, when the L-ArgR is in its native state.
The test system of test [3] is salty taste response in humans. Particulars: in vivo, cited from earlier work.
In test [4] the target is T1, ENaC composed of human delta, beta, gamma (Homo sapiens, UniProt P51172, C696Y).
T1 sequence (P51172 1-638 isoform P51172-1 C532Y): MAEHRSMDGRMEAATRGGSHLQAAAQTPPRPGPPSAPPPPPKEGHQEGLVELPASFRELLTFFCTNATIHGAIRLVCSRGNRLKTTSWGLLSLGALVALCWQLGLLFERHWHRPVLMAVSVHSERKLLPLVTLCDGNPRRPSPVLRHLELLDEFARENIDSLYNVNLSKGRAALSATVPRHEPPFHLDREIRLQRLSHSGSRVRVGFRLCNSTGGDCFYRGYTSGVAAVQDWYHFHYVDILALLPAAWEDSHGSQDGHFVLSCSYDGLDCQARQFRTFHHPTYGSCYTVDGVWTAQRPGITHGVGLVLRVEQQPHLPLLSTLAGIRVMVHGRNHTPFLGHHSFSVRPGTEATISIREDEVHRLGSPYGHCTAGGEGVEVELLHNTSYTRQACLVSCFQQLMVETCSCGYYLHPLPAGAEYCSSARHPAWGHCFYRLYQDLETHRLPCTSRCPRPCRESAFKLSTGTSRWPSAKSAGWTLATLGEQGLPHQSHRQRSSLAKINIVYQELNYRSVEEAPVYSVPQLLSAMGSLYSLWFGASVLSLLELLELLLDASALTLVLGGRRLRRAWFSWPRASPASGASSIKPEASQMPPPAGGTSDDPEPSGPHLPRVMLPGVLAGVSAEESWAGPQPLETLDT
T1 sequence (P51168 1-640 partner): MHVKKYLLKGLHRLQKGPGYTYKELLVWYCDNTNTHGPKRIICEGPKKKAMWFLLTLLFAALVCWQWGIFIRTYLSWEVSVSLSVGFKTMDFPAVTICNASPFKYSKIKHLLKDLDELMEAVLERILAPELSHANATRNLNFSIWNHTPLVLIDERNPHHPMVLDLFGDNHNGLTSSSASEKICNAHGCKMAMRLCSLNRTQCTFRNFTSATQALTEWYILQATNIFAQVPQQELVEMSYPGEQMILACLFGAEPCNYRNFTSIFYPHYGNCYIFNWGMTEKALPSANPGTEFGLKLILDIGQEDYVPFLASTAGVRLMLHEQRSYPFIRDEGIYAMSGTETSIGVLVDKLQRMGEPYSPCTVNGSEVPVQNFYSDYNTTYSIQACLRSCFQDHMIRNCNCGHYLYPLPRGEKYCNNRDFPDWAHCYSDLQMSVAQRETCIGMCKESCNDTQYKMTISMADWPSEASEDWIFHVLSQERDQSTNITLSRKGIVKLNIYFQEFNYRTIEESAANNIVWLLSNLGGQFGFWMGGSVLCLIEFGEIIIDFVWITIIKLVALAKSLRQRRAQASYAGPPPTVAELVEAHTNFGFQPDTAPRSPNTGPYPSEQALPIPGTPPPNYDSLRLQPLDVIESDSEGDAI
T1 sequence (P51170 1-649 partner): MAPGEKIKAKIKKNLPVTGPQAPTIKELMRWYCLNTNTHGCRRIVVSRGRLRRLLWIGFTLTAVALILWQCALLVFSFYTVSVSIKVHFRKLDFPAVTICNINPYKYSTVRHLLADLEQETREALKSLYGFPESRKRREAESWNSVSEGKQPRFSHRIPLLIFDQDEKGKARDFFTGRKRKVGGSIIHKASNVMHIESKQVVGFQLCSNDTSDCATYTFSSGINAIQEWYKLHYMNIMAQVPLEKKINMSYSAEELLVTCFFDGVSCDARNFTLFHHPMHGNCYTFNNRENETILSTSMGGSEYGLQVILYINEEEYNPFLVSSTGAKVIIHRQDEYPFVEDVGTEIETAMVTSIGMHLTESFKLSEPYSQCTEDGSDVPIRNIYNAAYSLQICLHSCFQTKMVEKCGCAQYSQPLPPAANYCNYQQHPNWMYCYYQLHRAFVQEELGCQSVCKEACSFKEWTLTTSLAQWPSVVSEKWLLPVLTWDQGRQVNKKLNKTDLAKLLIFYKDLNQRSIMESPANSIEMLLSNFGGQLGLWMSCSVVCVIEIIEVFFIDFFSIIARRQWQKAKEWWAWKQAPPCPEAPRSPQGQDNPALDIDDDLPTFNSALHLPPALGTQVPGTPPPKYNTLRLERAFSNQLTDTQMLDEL
In words: Amiloride inhibition of ENaC of different composition (FIG. 4). The format is biochemical. Particulars: gamma ENaC compared with human alpha.

For test [5], the target named is T2, ENaC delta (δ) subunit (Homo sapiens, UniProt P51172).
T2 sequence (P51172 1-802): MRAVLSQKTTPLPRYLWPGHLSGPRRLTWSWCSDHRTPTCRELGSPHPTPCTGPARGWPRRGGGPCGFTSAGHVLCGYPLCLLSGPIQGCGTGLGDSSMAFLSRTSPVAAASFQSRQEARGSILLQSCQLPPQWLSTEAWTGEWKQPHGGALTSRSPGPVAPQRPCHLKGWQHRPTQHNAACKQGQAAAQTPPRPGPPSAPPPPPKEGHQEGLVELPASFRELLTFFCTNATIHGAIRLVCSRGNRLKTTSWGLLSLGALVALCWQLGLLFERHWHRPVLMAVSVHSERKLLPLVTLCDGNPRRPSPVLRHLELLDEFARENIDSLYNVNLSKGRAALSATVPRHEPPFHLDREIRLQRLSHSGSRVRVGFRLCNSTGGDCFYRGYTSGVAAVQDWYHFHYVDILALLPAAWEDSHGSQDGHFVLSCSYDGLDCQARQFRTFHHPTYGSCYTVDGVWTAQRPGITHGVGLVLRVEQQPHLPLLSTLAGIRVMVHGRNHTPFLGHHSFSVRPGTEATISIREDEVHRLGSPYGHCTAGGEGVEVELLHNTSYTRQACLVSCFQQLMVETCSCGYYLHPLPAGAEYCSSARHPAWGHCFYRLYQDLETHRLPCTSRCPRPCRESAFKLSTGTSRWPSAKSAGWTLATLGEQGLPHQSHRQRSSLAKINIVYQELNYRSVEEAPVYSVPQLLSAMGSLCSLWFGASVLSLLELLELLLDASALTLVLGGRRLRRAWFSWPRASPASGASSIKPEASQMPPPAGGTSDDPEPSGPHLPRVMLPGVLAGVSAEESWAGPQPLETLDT
T2 sequence (P51168 1-640 partner): T1 sequence (P51168 1-640 partner)
T2 sequence (P51170 1-649 partner): T1 sequence (P51170 1-649 partner)
As to conditions: delta versus alpha subunit; cited from earlier work.

Molecules are shown by their SMILES. “Also recorded” adds a separate entry of the source. Like-named read-outs stand apart in the source and are kept apart here.

For `N=C(N)NCCC[C@@H](N)C(=O)O` [D-Arg, D-arginine], in test [1] (100 μM, cis-side, after 10 μM L-Arg), the “single channel activity after addition to the cis-side following L-Arg” value is recorded as “activity ceased”. In test [2], the “effect on the native receptor” value is recorded as “inhibits the receptor”. Also, in test [3], the “effect on salty taste response in humans” value is “equally effective”. Consider `N=C(N)NCCC[C@H](N)C(=O)O` [L-Arg, L-arginine], for which the “single channel activity after addition to the cis-side” value in test [1] (10 μM, cis-side of bilayer) was “evoked regular periodic channel activity”. Besides, the “sensitivity of the native receptor” value in test [2] was “in the tenths of uM”. The “effect on salty taste response in humans” value in test [3] (listed as L-arginine) is given as “equally effective”. Take `[Cl-].[Na+]` [NaCl, sodium chloride]: the “concentration at which a salty taste is imparted” value in test [3] is “above 50 mM”.

On to `N=C(N)NC(=O)c1nc(Cl)c(N)nc1N` [amiloride], for which, in test [4], the “amiloride sensitivity of delta-containing ENaC relative to alpha, beta, gamma ENaC” value is “less so than the alpha; also recorded: less sensitive to amiloride”. For the same molecule, in test [5], the “lower affinity for amiloride of delta subunit relative to alpha subunit” value is reported as 30 fold. The “effect on salty taste response in humans” value in test [3] is given as “inability of amiloride to inhibit sodium-induced salty taste response in humans; also recorded: not sensitive to amiloride”. Regarding `N=C(N)NCCC[C@H](N)C(=O)O` [arginine], the “effect on salty taste response in humans” value in test [3] is “salty taste enhancers”. Take `[H]/N=C(\N/C(=N/[H])NCCCCCCNC(=N)NC(=N)Nc1ccc(Cl)cc1)Nc1ccc(Cl)cc1` [chlorhexidine]: the “effect on salty taste response in humans” value in test [3] is “inhibitor of the salty taste response in humans”. `N=C(N)N` [guanidine]: the “effect on salty taste response in humans” value in test [3] is on record as “salty taste enhancers”. As to `N=C(N)NCCCC[C@H](N)C(=O)O` [homoarginine], in test [3], the “effect on salty taste response in humans” value is on record as “salty taste enhancers”.

These data come from patent publication US7892756B2, “Human salty taste receptor and methods of modulating salty taste perception” (Monell Chemical Senses Center, priority 2006, dated 2011).
